Measurements published in patent US10072011B2, “Substituted bridged urea analogs as sirtuin modulators” (GlaxoSmithKline Intellectual Property (No.2) Limited, priority 2014, dated 2018).

Biological target: T1, SIRT1 (Homo sapiens, UniProt Q96EB6)
T1 sequence (Q96EB6 1-747): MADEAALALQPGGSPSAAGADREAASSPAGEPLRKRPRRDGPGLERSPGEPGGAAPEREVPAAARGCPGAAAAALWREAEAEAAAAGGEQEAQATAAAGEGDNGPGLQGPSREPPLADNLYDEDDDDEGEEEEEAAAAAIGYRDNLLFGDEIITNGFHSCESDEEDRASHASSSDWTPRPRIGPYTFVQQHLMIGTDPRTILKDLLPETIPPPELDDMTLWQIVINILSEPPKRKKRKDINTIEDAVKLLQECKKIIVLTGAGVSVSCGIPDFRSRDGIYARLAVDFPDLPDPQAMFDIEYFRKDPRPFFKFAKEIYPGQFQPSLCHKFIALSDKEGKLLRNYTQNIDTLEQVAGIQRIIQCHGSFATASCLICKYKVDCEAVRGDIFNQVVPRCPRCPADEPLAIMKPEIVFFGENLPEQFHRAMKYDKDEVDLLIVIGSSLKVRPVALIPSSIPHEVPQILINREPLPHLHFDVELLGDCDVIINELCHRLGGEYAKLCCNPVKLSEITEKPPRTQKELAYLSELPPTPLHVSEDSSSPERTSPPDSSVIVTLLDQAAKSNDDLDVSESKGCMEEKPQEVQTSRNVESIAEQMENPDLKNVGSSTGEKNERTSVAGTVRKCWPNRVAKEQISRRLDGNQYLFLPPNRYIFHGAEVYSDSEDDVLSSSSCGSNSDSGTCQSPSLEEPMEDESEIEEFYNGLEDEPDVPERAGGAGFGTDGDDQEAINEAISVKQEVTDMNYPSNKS
Test: Trp mass spectrometry assay of SIRT1 activation (Ac-R-H-K-K(Ac)-W-NH2 peptide)
Assay type: biochemical
Details: Trp peptide 0.5 μM, 120 μM βNAD+, 10 nM SIRT1, 25 min at 25° C.; for Emax: 25 min, read-out: TRP MAX RESP (percent maximum fold activation)
Protocol: The Trp mass spectrometry assay was conducted as follows. […] The SIRT1 protein was obtained by cloning the SirT1 gene into a T7-promoter containing vector, which was then expressed in BL21(DE3) bacterial cells and purified as described in further detail below. Test compound was added at varying concentrations to this reaction mixture and the resulting reactions were monitored. After the 25 minute incubation with SIRT1, 10 μL of 10% formic acid was added to stop the reaction. The resulting reactions were sealed and frozen for later mass spec analysis. The relative SIRT1 activity was then determined by measuring the amount of O-acetyl-ADP-ribose (OAADPR) formed (or, alternatively, the amount of deacetylated Trp peptide generated) by the NAD-dependent sirtuin deacetylation reaction in the presence of varying concentrations of the test compound versus control reactions lacking the test compound. The degree to which the test agent activated deacetylation by SIRT1 was expressed as EC1.5 (i.e., the concentration of compound required to increase SIRT1 activity by 50% over the control lacking test compound), and Percent Maximum Activation (i.e., the maximum activity relative to control (100%) obtained for the test compound).
This time point was the same as that used for test compounds and, within the linear range, the endpoint represents a change in velocity.
For the above assay, SIRT1 protein was expressed and purified as follows. The SirT1 gene was cloned into a T7-promoter containing vector and transformed into BL21(DE3). The protein was expressed by induction with 1 mM IPTG as an N-terminal His-tag fusion protein at 18° C. overnight and harvested at 30,000×g. Cells were lysed with lysozyme in lysis buffer (50 mM Tris-HCl, 2 mM Tris[2-carboxyethyl]phosphine (TCEP), 10 μM ZnCl2, 200 mM NaCl) and further treated with sonication for 10 min for complete lysis. The protein was purified over a Ni-NTA column (Amersham) and fractions containing pure protein were pooled, concentrated and run over a sizing column (Sephadex S200 26/60 global). The peak containing soluble protein was collected and run on an Ion-exchange column (MonoQ). Gradient elution (200 mM-500 mM NaCl) yielded pure protein. This protein was concentrated and dialyzed against dialysis buffer (20 mM Tris-HCl, 2 mM TCEP) overnight. The protein was aliquoted and frozen at −80° C. until further use.
“NT” means not tested; “ND” means not determinable.

| Emax (relative to control (100%)) [%] | TRP Activity (EC1.5, concentration of test compound that results in 150% activation of SIRT1) | TRP MAX RESP (percent maximum fold activation) (relative to control (100%)) | SMILES |
| --- | --- | --- | --- |
| > 150 | A (EC1.5<1 μM) | – | O=C(NCC(F)(F)F)c1nc2c(cc1Cl)N1CC[C@@H](C1)N2C(=O)Nc1ccccn1 [Example 279, (4S)-8-chloro-N5-(pyridin-2-yl)-N7-(2,2,2-trifluoroethyl)-3,4-dihydro-1,4-methanopyrido[2,3-b][1,4]diazepine-5,7(2H)-dicarboxamide] |
| > 150 | B (EC1.5 1-25 μM) | – | C[C@@H](CO)NC(=O)c1ccc2c(n1)N(C(=O)Nc1ccccn1)[C@H]1CCN2C1 [Example 53, (4S)—N7-((S)-1-hydroxypropan-2-yl)-N5-(pyridin-2-yl)-3,4-dihydro-1,4-methanopyrido[2,3-b][1,4]diazepine-5,7(2H)-dicarboxamide] |
| > 150 | A (EC1.5<1 μM) | – | O=C(NCC1CC1)c1ccc2c(n1)N(C(=O)Nc1ncccn1)[C@H]1CCN2C1 [Example 97, (4S)—N7-(cyclopropylmethyl)-N5-(pyrimidin-2-yl)-3,4-dihydro-1,4-methanopyrido[2,3-b][1,4]diazepine-5,7(2H)-dicarboxamide] |
| > 150 | A (EC1.5<1 μM) | – | CC(C)[C@@H](C)NC(=O)c1ccc2c(n1)N(C(=O)Nc1ccc(F)cn1)[C@H]1CCN2C1 [Example 80, (4S)—N5-(5-fluoropyridin-2-yl)-N7-((R)-3-methylbutan-2-yl)-3,4-dihydro-1,4-methanopyrido[2,3-b][1,4]diazepine-5,7(2H)-dicarboxamide] |
| > 150 | A (EC1.5<1 μM) | – | O=C(NC1CC1(F)F)c1ccc2c(n1)N(C(=O)Nc1ccccn1)[C@H]1CCN2C1 (stereo partly drawn) [Example 20, (4S)—N7-(2,2-difluorocyclopropyl)-N5-(pyridin-2-yl)-3,4-dihydro-1,4-methanopyrido[2,3-b][1,4]diazepine-5,7(2H)-dicarboxamide] |
| > 150 | A (EC1.5<1 μM) | – | CCC(NC(=O)c1ccc2c(n1)N(C(=O)Nc1ccccn1)[C@H]1CCN2C1)C(F)(F)F (stereo in doubt) [Example 61, (4S)—N5-(pyridin-2-yl)-N7-((S)-1,1,1-trifluorobutan-2-yl)-3,4-dihydro-1,4-methanopyrido[2,3-b][1,4]diazepine-5,7(2H)-dicarboxamide] |
| > 150 | B (EC1.5 1-25 μM) | – | CC(C)(C#N)NC(=O)c1ccc2c(n1)N(C(=O)Nc1ccccn1)[C@H]1CCN2C1 [Example 104, (4S)—N7-(2-cyanopropan-2-yl)-N5-(pyridin-2-yl)-3,4-dihydro-1,4-methanopyrido[2,3-b][1,4]diazepine-5,7(2H)-dicarboxamide] |
| > 150 | A (EC1.5<1 μM) | – | CC[C@H](C)NC(=O)c1ccc2c(n1)N(C(=O)Nc1ccccn1)[C@H]1CCN2C1 [Example 26, (4S)—N7-((S)-sec-butyl)-N5-(pyridin-2-yl)-3,4-dihydro-1,4-methanopyrido[2,3-b][1,4]diazepine-5,7(2H)-dicarboxamide] |

Further lines, the molecule ahead of its results:

| SMILES | Emax (relative to control (100%)) [%] | TRP Activity (EC1.5, concentration of test compound that results in 150% activation of SIRT1) | TRP MAX RESP (percent maximum fold activation) (relative to control (100%)) |
| --- | --- | --- | --- |
| Cc1cc(C(=O)N[C@H](C)C(F)(F)F)nc2c1N1CC[C@@H](C1)N2C(=O)Nc1cc(OC[C@H](O)CO)ccn1 [Example 292, (4S)—N5-(4-((R)-2,3-dihydroxypropoxy)pyridin-2-yl)-9-methyl-N7-((R)-1,1,1-trifluoropropan-2-yl)-3,4-dihydro-1,4-methanopyrido[2,3-b][1,4]diazepine-5,7(2H)-dicarboxamide] | < 150 | A (EC1.5<1 μM) | – |
| O=C(NCC(F)(F)F)c1ccc2c(n1)N(C(=O)Nc1ccc(C3CC3)cn1)[C@H]1CCN2C1 [Example 174, (4S)—N5-(5-cyclopropylpyridin-2-yl)-N7-(2,2,2-trifluoroethyl)-3,4-dihydro-1,4-methanopyrido[2,3-b][1,4]diazepine-5,7(2H)-dicarboxamide] | > 150 | A (EC1.5<1 μM) | – |
| COc1cc(NC(=O)N2c3nc(C(=O)NC4CC4(F)F)ccc3N3CC[C@H]2C3)ncn1 (single isomer, unassigned) [Example 298] | < 150 | B (EC1.5 1-25 μM) | – |
| Cc1ncc(-c2cc(NC(=O)N3c4nc(C(=O)N[C@H](C)C(F)(F)F)ccc4N4CC[C@H]3C4)c(=O)n(C)c2)o1 [Example 319, (4S)—N5-(1-methyl-5-(2-methyloxazol-5-yl)-2-oxo-1,2-dihydropyridin-3-yl)-N7-((R)-1,1,1-trifluoropropan-2-yl)-3,4-dihydro-1,4-methanopyrido[2,3-b][1,4]diazepine-5,7(2H)-dicarboxamide] | < 150 | A (EC1.5<1 μM) | – |
| Cn1cccc(NC(=O)N2c3nc(C(=O)NC4CC4)ccc3N3CC[C@H]2C3)c1=O [Example 216, (4S)—N7-cyclopropyl-N5-(1-methyl-2-oxo-1,2-dihydropyridin-3-yl)-3,4-dihydro-1,4-methanopyrido[2,3-b][1,4]diazepine-5,7(2H)-dicarboxamide] | > 150 | B (EC1.5 1-25 μM) | – |
| O=C(N[C@@H]1CC1(F)F)c1ccc2c(n1)N(C(=O)Nc1cnc(OC[C@H](O)CO)cn1)[C@H]1CCN2C1 (single isomer, unassigned) [Example 260] | > 150 | B (EC1.5 1-25 μM) | – |
| C[C@@H](NC(=O)c1ccc2c(n1)N(C(=O)Nc1ncc(F)cc1F)[C@H]1CCN2C1)C(F)(F)F [Example 310, (4S)—N5-(3,5-difluoropyridin-2-yl)-N7-((R)-1,1,1-trifluoropropan-2-yl)-3,4-dihydro-1,4-methanopyrido[2,3-b][1,4]diazepine-5,7(2H)-dicarboxamide] | – | B (EC1.5 1-25 μM) | B (Fold Activation<150%) |
| Cc1ccc2c(NC(=O)N3c4nc(C(=O)NCC(F)(F)F)ccc4N4CC[C@H]3C4)n[nH]c2n1 [Example 64, (4S)—N5-(6-methyl-1H-pyrazolo[3,4-b]pyridin-3-yl)-N7-(2,2,2-trifluoroethyl)-3,4-dihydro-1,4-methanopyrido[2,3-b][1,4]diazepine-5,7(2H)-dicarboxamide] | > 150 | A (EC1.5<1 μM) | – |
| C#Cc1ccnc(NC(=O)N2c3nc(C(=O)NCC(F)(F)F)ccc3N3CC[C@H]2C3)c1 [Example 164, (4S)—N5-(4-ethynylpyridin-2-yl)-N7-(2,2,2-trifluoroethyl)-3,4-dihydro-1,4-methanopyrido[2,3-b][1,4]diazepine-5,7(2H)-dicarboxamide] | > 150 | A (EC1.5<1 μM) | – |
